From patent publication US20250248402A1, “HERBICIDAL COMPOSITIONS AND METHODS FOR CONTROLLING WEEDS” (UPL Mauritius Limited, priority 2024, published 2025)

System: common waterhemp, Sensitive "WUS" Population
Test: Greenhouse dose-response, effective dose on atrazine-sensitive waterhemp
Assay type: in vivo, Amaranthus tuberculatus
Conditions: 13 days after treatment, visual scale 0-100

## CCNc1nc(Cl)nc(NC(C)C)n1 [Atrazine (480 g/L FL), Atrazine]
  ED 20 Estimate: 11.127 g ai/ha
  ED 80 Estimate: 39.353 g ai/ha
